| Structure (SMILES) | melting point [°C] |
| --- | --- |
| O=Cc1ccc2c(ccc3cc4ccccc4cc32)c1 | 144 to 145 |
| COc1ccc(C(=O)COc2ccc3oc(C(=O)c4ccc(OC)cc4)c(C)c3c2)cc1 | 155 to 157 |
| COc1ccc2c(c1)CCN1C[C@H]3CCCN[C@H]3C[C@@H]21 | 125 to 127 |
| CON=CC1=CCCN(C(=O)OCC(=O)N2CCCCC2)C1 | 93 to 94 |
| CCCCCC(=O)c1c(C)n(C(C)=O)c(=O)n1C(C)=O | 71 to 72 |
| O=C(O)c1nn(-c2ccc(Cl)cc2Cl)c2c1CCCC2 | 239 to 240 |
| ClC1=Nc2ccccc2Sc2ccccc21 | 93 to 97 |
| COC(=O)[C@H](Cc1ccccc1)NC(=O)c1ccc([N+](=O)[O-])cc1 | 115 to 116 |
| Fc1ccc(-c2ccc3[nH]ccc3c2)cc1 | 71 to 74 |
| Cc1cc2c(cc1OCC(=O)O)C(C)(C)CC1(CC(C)(C)c3cc(OCC(=O)O)c(C)cc3O1)O2 | > 260 |
| Cc1cccc(-c2ccccc2)c1C(=O)c1sc(Nc2ccc(N3CCOCC3)cc2)nc1N | 125 to 135 |
| N#CCc1cnc(Cl)c(Cl)c1 | 72 to 75 |
| [N-]=[N+]=CC(=O)OC/C=C/c1ccc(NC(=O)OCc2ccccc2)cc1F | 93 to 96 |
| Nc1c(Cl)cc(C(=O)O)c2c1CCO2 | 258 |
| Cc1cc(-n2ccnc2)c2cccc(OCc3c(Cl)ccc(S(=O)(=O)N4CCCC4C(=O)NCC4CCN(CCC(=O)OC(C)(C)C)CC4)c3Cl)c2n1 (stereo not given) | 92 |
| Nc1cc(F)c(F)cc1S(N)(=O)=O | 137 to 142 |
| COc1cc2c(Nc3ccc(C)c(OC(C)=O)c3)ncnc2cc1OCc1ccncc1 | 201 to 202 |
| COc1ccc(S(=O)(=O)c2ccccc2)cc1S(=O)(=O)NC1CCOCC1 | 176 to 178 |
| O=C(Nc1ccc(Sc2ccncc2)cc1)c1ccc([N+](=O)[O-])cc1 | 295 to 298 |
| CC1=CC(=C(C#N)C#N)C=C(C)S1(=O)=O | 176 to 177 |
| CCOC(=O)CCCSC(=S)NCc1ccc(Cl)cc1 | 61 to 62 |
| Oc1ccc2cc(-c3nc4ccc(O)cc4o3)ccc2c1 | 288 to 290 |
| COC(=N)N1CCC(c2n[nH]c3ccccc23)CC1 | 153 to 155 |
| COc1cc(-c2nc(N(C)CCN)c3c(C)c(C#N)sc3n2)cc(OC)c1OC | > 290 |
| CC(C)=C1C(=O)N(c2ccc(O)cc2)C(=O)/C1=C(\C)c1c(C)n(C)c2ccccc12 | 231 to 233 |

| Structure (SMILES) | melting point [°C] |
| --- | --- |
| Cc1nc(C(Cl)(Cl)Cl)nc(O)c1Cl | 130 to 145 |
| COc1cccc(N2CCN(Cc3cn4cc(Cl)ccc4n3)CC2)c1 | 132 to 134 |
| CC1CC(=O)C=C2C=CC3C4CCC(=O)C4(C)CCC3C21C (stereo not given) | 171 |
| N#Cc1nn(-c2c(Cl)cc(C(F)(F)F)cc2Cl)c(Cl)c1SC(F)(F)F | 131 to 132 |
| Nc1cccc(-c2ccc(-c3cccc(CN4CC5C(N)C5C4)c3)cc2)n1 (stereo not given) | 184 to 196 |
| OP(O)C(NC(c1ccccc1)c1ccccc1)c1cccs1 (stereo not given) | 201 |
| CCCCCn1c2ccccc2c2cc(C(=O)OCC)ncc21 | 92 to 93 |
| Cc1cc(=O)[nH]c2ccc(OCCCN3CCC(NC(=O)c4ccccc4)CC3)cc12 | 243 to 245 |
| CC1(C)CCC(C)(C)c2cc(-c3cc(-c4ccc(C(=O)O)cc4)ccc3-c3ccccc3)c(O)cc21 | 145 |
| O=C1Cc2c([nH]c3ccccc23)-c2ncccc2N1 | > 330 |
| C[C@@H]1CN(c2ccc([N+](=O)[O-])cc2C#N)C[C@H](C)N1 | 109 to 110 |
| CCCCCCCCCCCCCCCCCCOc1cccc(N)c1 | 77 to 78 |
| COc1cc2c(cc1OC)-c1c(OC)c(OC)cc3ccnc(c13)C2=O | 229 to 230 |
| N#CC1(c2ccc(OC(F)F)c(OCC3CC3)c2)CCC(=C2SCCCS2)CC1 (stereo not given) | 84 to 85 |
| O=C(O)C1CC(=O)N(Cc2ccccc2)C1C(=O)N(Cc1ccccc1)Cc1ccccc1 (stereo not given) | 123 to 125 |
| O=C(Nc1ccc(CN2C(=O)C3CCCC3N(C(=O)CN3C(=O)c4ccccc4C3=O)c3ccccc32)cc1)c1ccc2ccccc2c1 (stereo not given) | 191 to 194 |
| CC(=O)N(C)C(=O)Oc1cccc2c1OC(C)(C)O2 | 76 to 77 |
| CC(=O)NC[C@H]1CN(c2ccc(N3CCC(n4nnc(N5CCN(C(C)=O)CC5)n4)CC3)c(F)c2)C(=O)O1 | 216 to 218 |
| COC1C=Cc2ccccc2C1(Nc1ccccc1C)C(N)=S (stereo not given) | 162 |
| Fc1ccc(Nc2nc(N/N=C/c3cccc4ccccc34)nc(N3CCOCC3)n2)cc1 | 220 |
| O=c1[nH]c2ccc(N3CCN(Cc4ccccc4)CC3)cc2c(=O)o1 | 235 |
| C/C=C/CC(=O)N[C@H]1CC[C@H](CCN2CCC(c3cccc4c3CCO4)CC2)CC1 | 196 |
| CC(Cc1ccc(OCCCO)cc1)NCC(O)c1cccc(C(F)(F)F)c1 (stereo not given) | 97 to 103 |
| COC[C@](C#N)(C(=O)NCC(C)(C)C)[C@H](c1ccccc1OC)c1cccc2ccccc12 (relative stereo) | 185 to 186 |
| CCC1N=C(c2ccccc2Cl)c2cc(CCC(=O)OC)sc2-n2c(C)nnc21 (stereo not given) | 126 to 127 |

Next, values leading:

| melting point [°C] | Structure (SMILES) |
| --- | --- |
| 111 to 115 | CC(C)Cn1c(=O)n(C)c(=O)c2c(Sc3cccs3)c(C(=O)c3cccnc3)sc21 |
| 95.3 to 111 | CC(C)(C)OC(=O)N(CCCc1ccc(Cl)cc1)C1CCCC1N (stereo not given) |
| 119 | CCOC(=O)C(N=C(c1cc(Cl)ccc1N)c1ccccc1F)C(=O)OCC |
| 96.5 to 97.5 | CCOC(=O)C(=O)Nc1cc(C(F)(F)F)c(Cl)cc1[N+](=O)[O-] |
| 167 to 170 | O=C(O)COc1ccc(SCc2cc(-c3ccc(C(F)(F)F)cc3)on2)c2c1CCCC2 |
| 158 to 160 | CCN(CC)C(=O)Oc1c(N2CCCC2)c(=O)n(-c2ccccc2)c2ncccc12 |
| 79 to 81 | COc1ccnc2c1c(C(C)=O)cn2C |
| 175 to 176 | COc1cc(COc2ccc3nc(NC(=O)OCC(O)CO)cn3n2)cc(OC)c1OC (stereo not given) |
| 96 to 98 | O=c1cc(NCCN2CCN(c3ccc(F)cc3)CC2)cn[nH]1 |
| 163 to 165 | CN(C(=O)c1ccc2nonc2c1)C1CCN(C=O)CC1 |
| 153 to 155 | O=C(NCC(=O)c1ccco1)c1ccc(F)cc1 |
| 94 to 95 | O=C(O)CCc1cccc(OCc2cn(-c3ccc(C(F)(F)F)cn3)nc2C2CCCCC2)c1 |
| 253 to 254 | Cc1cc2c(cc1Sc1ccc(C(=O)O)cc1)C(C)(C)CCC2(C)C |
| 82 to 84 | CN(C)c1c(S(=O)C(F)(F)F)c(-c2ncon2)nn1-c1c(Cl)cc(C(F)(F)F)cc1Cl (stereo not given) |
| 187 to 189 | O=c1c2cccc(F)c2nc2sccn12 |
| 80 to 81 | C=Cc1cc2cc(OC)ccc2[nH]1 |
| 176 to 177 | CC(C)=NOCc1nc2c(N)nc3c(c2n1CC(C)C)CCCC3 |
| 265 | COc1ccc(C(=O)C2=C(O)C(=O)N(c3ccc(C)nn3)C2c2ccc(OC(F)(F)F)cc2)cc1 (stereo not given) |
| 261 to 263 | CCNc1nc(NC)cc(NS(=O)(=O)c2ccc(N)cc2)n1 |
| 226 to 228 | CCCc1c(OCc2ccc(C(=O)O)cc2[N+](=O)[O-])ccc(C(C)=O)c1O |
| 364 to 366 | O=C(CC(=O)C(F)(F)F)Nc1cc(-c2ccncc2)n[nH]1 |
| 149 to 151 | FC(F)(F)c1ccccc1-c1ccnc2ncnn12 |
| 153 to 155 | CS(=O)(=O)NCCCCCCCCn1cnc2c(N)nc3ccccc3c21 |
| 114 to 116 | CCCOc1cc(OC)c2c(c1)C(=O)c1cccc(OC(C)C)c1-2 |
| 90 to 92 | O=C(O)c1cn(-c2ccc(F)cc2F)c2cc(Cl)c(F)cc2c1=O |

| melting point [°C] | Structure (SMILES) |
| --- | --- |
| 96 to 99 | CCCC[C@H](NC(=O)CC[C@H](C)CNC(=O)COc1ccccc1)C(=O)CS(=O)Cc1ccco1 (stereo not given in full) |
| > 300 | COc1ccc(-c2nc3cc4nc[nH]c(=O)c4cc3[nH]2)cc1 |
| 208 to 210 | Cc1c(-c2cc(Nc3cc4n(n3)CCN(C)C4)c(=O)[nH]n2)cccc1N1Cc2ccc(C(C)(C)C)cc2C1=O |
| 123 to 124 | CCn1nc(-c2ccc(OC)c(F)c2)c(-c2ccc(OC)cc2)cc1=O |
| 167 to 172 | CC(=O)Nc1nc(/C=C/C(=O)N2CCN(C(=O)c3cc(C(F)(F)F)cc(C(F)(F)F)c3)[C@H](Cc3c[nH]c4ccccc34)C2)cs1 |
| 149 to 150 | CCOC(=O)CN1C(=O)c2ccc3ccccc3c2S1(=O)=O |
| 155 to 158 | CCNC(=NC(=Nc1ccccc1)N1CCOCC1)C(C)C |
| 100 to 101 | CCCn1cc(C(=O)OCC)c(C(=O)OCC)c1N1C(=O)c2ccccc2C1=O |
| 124 to 126 | CS(=O)(=O)c1ccc(C(CC2CCCC2)C(=O)Nc2nccs2)cc1NO (stereo not given) |
| 84 to 87 | CCNc1cccc(NC(=O)COCC)c1C#N |
| 107 | CCOC(=O)C(=CC(C)c1ccc(Br)cc1)CC(=O)O (stereo not given) |
| 144 to 146 | CCCc1ccc(Oc2ccc3c(c2)OC(C(F)(F)F)C(C(=O)O)=C3)cc1 (stereo not given) |
| 218 to 221 | CNCC(C(=O)O)c1ccc(O)cc1 (stereo not given) |
| 121 | C=CCOC(=O)c1cccc2c1N=C(c1ccccc1Cl)CC2=O |
| 149 | CC(O)=C(C#N)CC(=O)Nc1ccc(OCCCI)cc1 |
| 103 to 104 | CCCCCCOc1ccc(NC(=O)NCCC(C)(C)C)cc1 |
| 46 to 47 | CCCCc1oc2ccccc2c1C(=O)c1ccc(OCCBr)cc1 |
| 123 to 124 | CN(Cc1ccc(OC(F)(F)F)cc1)C(=O)OC[C@@]1(C)Cn2cc([N+](=O)[O-])nc2O1 |
| 101 to 103 | CC(C)(C)ONC(=O)n1cc(C(=O)C2CSC(c3cccnc3)N2)c2ccccc21 (stereo not given) |
| 91.2 to 94 | CCC(Cc1ccccc1-c1ccccc1)C(=O)O (stereo not given) |
| 40 to 43 | OCC1Cc2c(F)ccc(Br)c2O1 (stereo not given) |
| 220 | Oc1ccc(-c2nnc(Nc3ccc(Br)c(Cl)c3)s2)cc1O |
| 53 to 63 | CCOCc1nc2c(N)nc3ccccc3c2n1CC1(N)CCOCC1 |
| 120 to 122 | CC1(C)Oc2ccc(C#N)cc2C(c2cccn(Cc3ccccc3)c2=O)C1O (stereo not given) |
| 74 to 75 | CC(C)c1nn(-c2ccc(C(F)(F)F)cn2)cc1CCO |

Source: a melting point compilation (Tetko et al.; mined from patent text by program, amines drawn as free bases though some values may be those of a salt)
